Results from ChEMBL document CHEMBL1201862, “PubChem BioAssay data set” (2004).
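Grown in 96-well plates, cells were treated for 48 hours with each compound at five concentrations. Insufficient inhibition: endpoint recorded as highest concentration tested. Abbreviation: GI50, concentration required for 50% inhibition of growth.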 The source made the active and inactive calls. Cut-off read from the data, not from the text of the source: active = GI50 up to about 1.1 µM and inactive = higher.

Legend:
Assay in all cases: NCI-60 cell line screen, 48 h
SF-295 = system: SF-295
K562 = system: K562
SF-268 = system: SF-268
U-251 = system: U-251
SF-539 = system: SF-539
HCC 2998 = system: HCC 2998
HT-29 = system: HT-29
SR = system: SR
SK-MEL-28 = system: SK-MEL-28
TK-10 = system: TK-10
M14 = system: M14
NCI-H226 = system: NCI-H226
EKVX = system: EKVX
NCI-H23 = system: NCI-H23
786-0 = system: 786-0
HCT-15 = system: HCT-15
HL-60 = system: HL-60
COLO 205 = system: COLO 205
SK-MEL-5 = system: SK-MEL-5
UO-31 = system: UO-31

Compound: N#C/C(=C/c1ccco1)C(=O)c1ccccc1
- GI50 (SF-295): > 100 µM (inactive)
- GI50 (K562): > 100 µM (inactive)
- GI50 (SF-268): > 100 µM (inactive)
- GI50 (U-251): > 100 µM (inactive)
- GI50 (SF-539): > 100 µM (inactive)
- GI50 (HCC 2998): > 100 µM (inactive)
- GI50 (HT-29): > 100 µM (inactive)
- GI50 (SR): > 100 µM (inactive)
- GI50 (SK-MEL-28): > 100 µM (inactive)
- GI50 (TK-10): > 100 µM (inactive)
- GI50 (M14): > 100 µM (inactive)
- GI50 (NCI-H226): > 100 µM (inactive)
- GI50 (EKVX): > 100 µM (inactive)
- GI50 (NCI-H23): > 100 µM (inactive)
- GI50 (786-0): > 100 µM (inactive)
- GI50 (HCT-15): > 100 µM
- GI50 (HL-60): > 100 µM (inactive)
- GI50 (COLO 205): > 100 µM (inactive)
- GI50 (SK-MEL-5): > 100 µM (inactive)
- GI50 (UO-31): > 100 µM (inactive)

Compound: COC(=O)C1=C(O)c2cc3c(cc2[C@H](c2cc(OC)c(OC)c(OC)c2)C1C(=O)OC)OCO3 (stereo not given in full)
- GI50 (SF-295): 57 µM (inactive)
- GI50 (K562): 72.1 µM (inactive)
- GI50 (SF-268): 50.8 µM (inactive)
- GI50 (U-251): 82.8 µM (inactive)
- GI50 (SF-539): 20.7 µM (inactive)
- GI50 (HCC 2998): > 100 µM (inactive)
- GI50 (HT-29): 95.5 µM (inactive)
- GI50 (SR): 86.5 µM (inactive)
- GI50 (SK-MEL-28): 52.8 µM (inactive)
- GI50 (TK-10): 31.3 µM (inactive)
- GI50 (M14): 89.5 µM (inactive)
- GI50 (NCI-H226): 33 µM (inactive)
- GI50 (EKVX): 68.2 µM (inactive)
- GI50 (NCI-H23): > 100 µM (inactive)
- GI50 (786-0): 42.7 µM (inactive)
- GI50 (HCT-15): > 100 µM
- GI50 (HL-60): > 100 µM (inactive)
- GI50 (COLO 205): 19.7 µM (inactive)
- GI50 (SK-MEL-5): 32.8 µM (inactive)
- GI50 (UO-31): 42.3 µM (inactive)

Compound: CC(C)C1(O)C(=O)N(c2c(F)c(F)c(F)c(F)c2F)C(=S)N1CCSc1ccccc1 (stereo not given)
- GI50 (SF-295): 17.3 µM (inactive)
- GI50 (K562): 13 µM (inactive)
- GI50 (SF-268): 18.4 µM (inactive)
- GI50 (U-251): 18.2 µM (inactive)
- GI50 (SF-539): 20.1 µM (inactive)
- GI50 (HCC 2998): 20.6 µM (inactive)
- GI50 (HT-29): 18.4 µM (inactive)
- GI50 (SR): 16.2 µM (inactive)
- GI50 (SK-MEL-28): 16.5 µM (inactive)
- GI50 (TK-10): 14.7 µM (inactive)
- GI50 (M14): 17.5 µM (inactive)
- GI50 (NCI-H226): 20.7 µM (inactive)
- GI50 (EKVX): 18.8 µM (inactive)
- GI50 (NCI-H23): 18.1 µM (inactive)
- GI50 (786-0): 19.1 µM (inactive)
- GI50 (HCT-15): 17.9 µM
- GI50 (HL-60): 14.3 µM (inactive)
- GI50 (COLO 205): 17.9 µM (inactive)
- GI50 (SK-MEL-5): 17.4 µM (inactive)
- GI50 (UO-31): 15.5 µM (inactive)

Compound: O=c1ccn(C2OC(COC3CCCCO3)C(OC3CCCCO3)C2OC2CCCCO2)c(=O)n1-c1ccccc1 (stereo not given)
- GI50 (SF-295): > 100 µM (inactive)
- GI50 (K562): 91.6 µM (inactive)
- GI50 (SF-268): > 100 µM (inactive)
- GI50 (U-251): > 100 µM (inactive)
- GI50 (SF-539): > 100 µM (inactive)
- GI50 (HCC 2998): > 100 µM (inactive)
- GI50 (HT-29): > 100 µM (inactive)
- GI50 (SR): 51.5 µM (inactive)
- GI50 (SK-MEL-28): > 100 µM (inactive)
- GI50 (TK-10): > 100 µM (inactive)
- GI50 (M14): > 100 µM (inactive)
- GI50 (NCI-H226): > 100 µM (inactive)
- GI50 (EKVX): > 100 µM (inactive)
- GI50 (NCI-H23): > 100 µM (inactive)
- GI50 (786-0): > 100 µM (inactive)
- GI50 (HCT-15): > 100 µM
- GI50 (HL-60): > 100 µM (inactive)
- GI50 (COLO 205): > 100 µM (inactive)
- GI50 (SK-MEL-5): > 100 µM (inactive)
- GI50 (UO-31): > 100 µM (inactive)

Compound: CS(=O)(=O)N/N=C/CN1C(=O)c2ccccc2C1=O
- GI50 (SF-295): > 100 µM (inactive)
- GI50 (K562): > 100 µM (inactive)
- GI50 (SF-268): > 100 µM (inactive)
- GI50 (U-251): > 100 µM (inactive)
- GI50 (SF-539): > 100 µM (inactive)
- GI50 (HCC 2998): > 100 µM (inactive)
- GI50 (HT-29): > 100 µM (inactive)
- GI50 (SR): > 100 µM (inactive)
- GI50 (SK-MEL-28): > 100 µM (inactive)
- GI50 (TK-10): > 100 µM (inactive)
- GI50 (M14): > 100 µM (inactive)
- GI50 (NCI-H226): > 100 µM (inactive)
- GI50 (EKVX): > 100 µM (inactive)
- GI50 (NCI-H23): > 100 µM (inactive)
- GI50 (786-0): > 100 µM (inactive)
- GI50 (HCT-15): > 100 µM
- GI50 (HL-60): > 100 µM (inactive)
- GI50 (COLO 205): > 100 µM (inactive)
- GI50 (SK-MEL-5): > 100 µM (inactive)
- GI50 (UO-31): > 100 µM (inactive)
